Where “and” joins values, the source holds several entries; their conditions need not be identical. Equal entries are not always repeated.
Experiments:
[1] = target: T1, kiwifruit GDP-L-Galactose Guanyltransferase EST 319998 (Actinidia chinensis, UniProt A0A2R6QD99); experiment: Continuous coupled assay of transferase activity with guanyl acceptors; conditions: for % of D-mannose-1P / Rate: sugar phosphate as guanyl acceptor, epimerase generated substrate; for Rate: N = 6; for ability to act as acceptor for the guanyl moiety / vamax / Km: FIG. 3; for ability to act as acceptor for the guanyl moiety: physiological concentrations; for vamax / Km: varying concentrations of the guanyl acceptor, continuous coupled assay
Protocol: Expression of genes in E. coli. The EST 319998 from young fruit of Actinidia chinensis and At4g26850 were each cloned into pET30A (Novagene, USA), their sequence checked and expressed in E. coli. The N terminal His6 tag was used to purify the protein. An empty vector control was expressed and purified in parallel. Techniques were essentially as described earlier (Laing et al., 2004).
(§1) L-Galactose dehydrogenase (Gen Bank accession AA018639 (EST 56121), 1.5 ug/assay) was cloned from an EST derived from an A. deliciosa (kiwifruit) shoot bud library with a maltose binding protein presequence and assayed as described previously (Laing et al., 2004). L-Galactose-1-Phosphate phosphatase was cloned from Arabidopsis thaliana (At3g02870, 3.1 ug/assay) and assayed as described (Laing et al., 2004). GDP-D-Mannose 3′,5′-Epimerase (198296) was cloned from dormant kiwifruit (A. deliciosa) buds three days after hydrogen cyanamide treatment and assayed as described (Wolucka et al., 2001). The former two enzymes are highly specific as to their substrates (Laing et al., 2004; Laing et al., 2004).
The assay for GDP-L-Galactose-1-Phosphate Guanyltransferase was run in 20 mM TrisCl, pH 8.0, GDP-L-Galactose, with 1 mM D-Mannose-1-Phosphate. […] In the latter case, 0.21 mg of epimerase was incubated with GDP-D-Mannose in 20 mM Tris Cl pH 8 in a total volume of 400 μL (see Wolucka et al., 2001) for 30 minutes at 20 C and then used directly in the assay at a 1 to 20 dilution. Assays were either terminated after 10 minutes by heating to 100 C for three minutes, or directly coupled to the phosphatase and L-Galactose dehydrogenase to measure product formation during the assay. Heat terminated assays were cooled on ice, centrifuged to remove precipitated protein and L-Galactose assayed using the coupling enzymes described above (see also (Laing et al., 2004)).
The applicants used two assays to characterise the enzyme, using two sources of the substrate GDP-L-Galactose. The first assay used the E. coli expressed coupling enzymes L-Galactose-1-Phosphate phosphatase and L-Galactose dehydrogenase. […] The applicants either measured the product formed by adding the coupling enzymes in the assay and measuring the time course of NADH formed, or by stopping the reaction after 10 minutes by boiling for 3 minutes and centrifuging. To this latter fixed time assay, the applicants then either adding coupling enzymes to measure L-Galactose production or using the LCMS to measure the products. The LCMS was used only to confirm the results of the coupled enzyme reaction and to measure the reverse reaction.

[2] = target: T1, kiwifruit GDP-L-Galactose Guanyltransferase EST 319998; experiment: Fixed time transferase assay, aliquots measured by LCMS; format: biochemical; conditions: acceptor Gal1P (reverse reaction)
Protocol: The assay for GDP-L-Galactose-1-Phosphate Guanyltransferase was run in 20 mM TrisCl, pH 8.0, GDP-L-Galactose, with 1 mM D-Mannose-1-Phosphate. GDP-L-Galactose was either used directly from the Glycoteam product (in which case high backgrounds were observed due to contaminating L-Galactose-1-Phosphate) or GDP-L-Galactose was generated using the epimerase. In the latter case, 0.21 mg of epimerase was incubated with GDP-D-Mannose in 20 mM Tris Cl pH 8 in a total volume of 400 μL (see Wolucka et al., 2001) for 30 minutes at 20 C and then used directly in the assay at a 1 to 20 dilution. Assays were either terminated after 10 minutes by heating to 100 C for three minutes, or directly coupled to the phosphatase and L-Galactose dehydrogenase to measure product formation during the assay. Heat terminated assays were cooled on ice, centrifuged to remove precipitated protein and L-Galactose assayed using the coupling enzymes described above (see also (Laing et al., 2004)). Assays for L-Galactose were linear with added L-Galactose-1-Phosphate over the range measured. Backgrounds were run using the empty vector control, which gave the same result as a boiled enzyme control.
As an alternative assay, LCMS was used to identify the forward reaction described above as well measure as the reverse pyrophosphorylase reaction where GTP (1 mM) and L-Galactose-1-Phosphate were incubated as above and the formation of GDP-L-Galactose followed. GDP-D-Mannose and GDP-L-Galactose were separated by HPLC before MS. LC-MS employed an LTQ linear ion trap mass spectrometer fitted with an ESI interface (ThermoQuest, Finnigan, San Jose, Calif., USA) coupled to an EttanTM MDLC (GE Healthcare Bio-Sciences). Separation of GDP-D-Mannose and GDP-L-Galactose was achieved using a Hypercarb column (Thermo Electron, USA), 100×2.1 mm maintained at 40 C. Solvents were (A) 50 mM ammonium acetate and (B) acetonitrile and the flow rate was 200 uL/min. The initial mobile phase, 5% B was held for 3 min, then ramped linearly to 20% B at 11 min, held for 5 min, then ramped linearly to 70% B at 19 min and held for 5 min before resetting to the original conditions. Retention times for GDP-D-Mannose and GDP-L-Galactose were 16.8 min and 17.5 min, respectively.
MS data was acquired in the negative mode using both a selective reaction monitoring (SRM) method SRM m/z 604>m/z 344, 362, 424, 442 and a selected ion monitoring (SIM) method SIM m/z 604. This SIM method monitors only the (M-H)— ion for GDP-D-Mannose and GDP-L-Galactose while the SRM method monitors the distinctive daughter ions formed by fragmenting the precursor ion (M-H)— for both compounds. Both methods maximise sensitivity by screening out any chemical noise from other compounds present. The ESI voltage, capillary temperature, sheath gas pressure, sweep gas and auxiliary gas were set at −10 V, 350° C., 25 psi, 3 psi, and 3 psi, respectively. Separation of D-Mannose-1-Phosphate and L-Galactose-1-Phosphate was achieved isocratically using a Hypercarb column (Thermo Electron, USA), 100×2.1 mm maintained at 40° C. Solvents were (A) 20 mM ammonium acetate and (B) methanol and the flow rate was 200 uL/min. Using a mobile phase of 2% B the retention times for D-Mannose-1-Phosphate and L-Galactose-1-Phosphate were 4.3 min and 4.9 min, respectively. MS data was acquired in the negative mode using both a selective reaction monitoring (SRM) method SRM m/z 259>m/z 79, 97 and a selected ion monitoring (SIM) method SIM m/z 259. […]

[3] = system: L-Galactose dehydrogenase; experiment: L-Galactose dehydrogenase substrate specificity; format: biochemical, A. deliciosa (kiwifruit)
Protocol: as §1
The applicants used two assays to characterise the enzyme, using two sources of the substrate GDP-L-Galactose. The first assay used the E. coli expressed coupling enzymes L-Galactose-1-Phosphate phosphatase and L-Galactose dehydrogenase. […] The dehydrogenase is specific to L-Galactose, not reacting with D-Mannose or D-Galactose or a range of other sugars (Gatzek et al., 2002; Laing et al., 2004) except for L-Gulose. […] Consequently, our coupled assay would measure primarily L-Galactose and also L-Gulose. The applicants either measured the product formed by adding the coupling enzymes in the assay and measuring the time course of NADH formed, or by stopping the reaction after 10 minutes by boiling for 3 minutes and centrifuging. To this latter fixed time assay, the applicants then either adding coupling enzymes to measure L-Galactose production or using the LCMS to measure the products. The LCMS was used only to confirm the results of the coupled enzyme reaction and to measure the reverse reaction.

[4] = system: Tobacco (Nicotiana benthamiana) leaves; experiment: Leaf ascorbate after transient transformation of tobacco leaves; format: in vivo; conditions: transient expression with P19
Text: Tobacco (Nicotiana benthamiana) was transiently transformed with Agrobacterium containing the kiwifruit gene for GDP-L-Galactose Guanyltransferase (EST 319998) cloned in pGreen (Hellens et al., 2000) mixed with Agrobacterium containing the gene for the silencing suppressor P19 as previously described (Hellens et al., 2005). Controls were run using Agrobacterium containing P19 in pGreen alone. Tobacco leaves were harvested 9 days after transformation and frozen in liquid nitrogen.
Ascorbate was extracted as described previously in metaphosphoric acid without reducing agent (Davey et al., 2003; Rassam and Laing, 2005). […]

T1 sequence (A0A2R6QD99 entry or part of it): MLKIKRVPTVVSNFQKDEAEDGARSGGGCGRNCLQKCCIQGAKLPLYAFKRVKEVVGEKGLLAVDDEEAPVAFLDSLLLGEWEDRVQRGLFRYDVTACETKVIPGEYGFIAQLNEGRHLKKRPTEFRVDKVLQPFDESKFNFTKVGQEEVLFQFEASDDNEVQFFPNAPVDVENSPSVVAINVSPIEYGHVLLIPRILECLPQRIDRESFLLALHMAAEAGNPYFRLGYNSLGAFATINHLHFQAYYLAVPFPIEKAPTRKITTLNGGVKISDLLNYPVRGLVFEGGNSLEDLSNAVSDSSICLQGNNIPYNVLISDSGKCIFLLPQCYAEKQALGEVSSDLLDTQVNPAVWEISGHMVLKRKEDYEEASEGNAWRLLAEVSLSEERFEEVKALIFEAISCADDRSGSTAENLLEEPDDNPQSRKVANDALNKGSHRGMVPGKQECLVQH

Row | ability to act as acceptor for the guanyl moiety [1] | vamax [1] | Molecule | % of D-mannose-1P [1] | Rate [1] | also measured
1 |  |  | O=P(O)(O)O[C@H]1O[C@H](CO)[C@H](O)[C@H](O)[C@H]1O [D-Galactose-1-P] | 113% | 0.38 nmoles/sec/ug protein | 
2 |  |  | O=P(O)(O)O[C@H]1O[C@H](CO)[C@@H](O)[C@H](O)[C@H]1O [D-Glucose-1-P] | 106% and 74% | 0.35 nmoles/sec/ug protein and 0.24 nmoles/sec/ug protein | 
3 |  |  | O=P(O)(O)OC[C@H]1OC(O)[C@H](O)[C@@H](O)[C@@H]1O (stereo partly drawn) [D-Glucose-6-P] | 24% | 0.08 nmoles/sec/ug protein | rate relative to the best acceptors ([1]; guanyl acceptor, Table 2): about 25%
4 |  |  | Nc1nc2c(ncn2[C@@H]2O[C@H](COP(=O)(O)OP(=O)(O)O[C@H]3O[C@H](CO)[C@@H](O)[C@H](O)[C@@H]3O)[C@@H](O)[C@H]2O)c(=O)[nH]1 [GDPMan, GDP-D-Mannose] |  |  | transferase activity, LCMS ([2]; 0.057 ug protein): 0 nmoles/sec/ug protein; transferase activity, LCMS ([2]; 1.14 ug protein): 0 nmoles/sec/ug protein
5 |  |  | Nc1nc2c(ncn2[C@@H]2O[C@H](COP(=O)(O)OP(=O)(O)OP(=O)(O)O)[C@@H](O)[C@H]2O)c(=O)[nH]1 [GTP] |  |  | transferase activity, LCMS ([2]; 0.057 ug protein): 0 nmoles/sec/ug protein; transferase activity, LCMS ([2]; 1.14 ug protein): 0 nmoles/sec/ug protein
6 |  |  | O=C[C@@H](O)[C@@H](O)[C@H](O)[C@@H](O)CO [L-Gulose] |  |  | KM (substrate) relative to L-Galactose [3]: 30 times; maximum velocity with L-Gulose relative to L-Galactose [3]: approximately 2.5 fold; activity compared with L-Galactose ([3]; at limiting substrate concentrations): about 8%
7 | reaction was seen | 0.12±0.03 nmoles sec^−1 ug^−1 protein | O=P(O)(O)O [phosphate, inorganic phosphate] |  |  | Km [1]: 4400 ± 2000 µM
8 | reaction was seen | 0.032±0.002 nmoles sec^−1 ug^−1 protein | O=P(O)(O)OP(=O)(O)O [pyrophosphate, inorganic pyrophosphate] |  |  | Km [1]: 160 ± 50 µM
9 |  |  | 82552_Md: GDP-L-Galactose Guanyltransferase from Malus x domesticus (apple) (protein, Malus x domesticus) MLRIKRVPTVVSNYQKDEAEEVARRVGGCGRNCLNQCCIPGAKLPLYAFKKLNVNDGDTGLLGREKREPPVAFLDSLLLGEWEDRMQRGLFRYDVTACETKVIPGQFGFIAQLNEGRHLKKRPTEFRVDKVLQPFDGSKFNFTKVGQEEVLFQFEASKDGEVQFFPSAPIDVESSPSVVAINVSPIEYGHVLLIPHILERLPQRIDRESFLLALHMAAEAGNPYFRLGYNSLGAFATINHLHFQAYYLAVTFPIEKAPTKKISTLNAEVKVSELLNYPVRGLVFEGGNTLQDLSNTVSDACICLQENNIPYNVLISDSGKRIFLVPQCYAEKQALGEVRAEILDTQVNPAVWEISGHMVLKRKKDYDEASDENAWKLLAEVSLSEERFLEVNALIFEGIASGDNGNENLLKDPEVKPRSHEEVNTINKRVHCSAVNEQICRVFTM |  |  | effect on leaf ascorbate [4]: increased ascorbate levels in the leaf

Row | Molecule | ability to act as acceptor for the guanyl moiety [1] | vamax [1] | % of D-mannose-1P [1] | Rate [1] | also measured
10 | O=P(O)(O)O[C@H]1O[C@H](CO)[C@@H](O)[C@H](O)[C@@H]1O [D-Mannose-1-P, D-Mannose-1-Phosphate] | better acceptor for the guanyl moiety than phosphate or pyrophosphate | 0.17±0.009 nmoles sec^−1 ug^−1 protein | 100% | 0.33 nmoles/sec/ug protein | 

— patent US9157088B2, “Transferases, epimerases, polynucleotides encoding these and uses thereof” (priority 2007, dated 2015)
